Experimental data published in patent US11485725B2, “Derivatives of piperlongumine and uses thereof” (Auransa Inc., priority 2017, dated 2022).

Experiments:
[1] = tested on: HCT116 (colorectal cancer) cells; test: Resazurin-based cell viability assay using colorectal cancer cells; details: Homo sapiens, HCT-116, 72 hr incubation
Method: Determination of Potency of Compounds in Cell Viability Assay Using Colorectal Cancer Cells
The blue dye resazurin-based assay was performed to determine cell viability and used according to manufacture protocol (Sigma®). HCT116 (colorectal cancer) cells were seeded in the DMEM medium (10% FBS serum). Approximately 1,500 cells were plated per well in 96 well plates. Cells were allowed to grow at 37° C. for 24 hr in 5% CO2 environment in a humidified incubator. Serially diluted compounds (100 μL) were added to the culture plate after 24 hr. After addition of compounds, plates were incubated for 72 hr. Experiment was terminated at the designated incubation time by replacing the medium with 100 μL of 1 mM of resazurin (Sigma®) prepared in culture medium (DMEM) and were further incubated in culture conditions for 4-6 hours. Fluorescence was recorded using a multimodal plate reader (Biotek Synergy Neo®) at an excitation wavelength of 535 nm and emission wavelength of 590 nm to obtain relative fluorescence units. Data analysis was done by subtracting the background fluorescence (medium blank) value from each reading and then normalizing with the vehicle control (DMSO treated cells) to obtain percent survival/proliferation. IC50 was calculated from percent survival values using GraphPad Prism® (see Table 1).

MOLP-8 = test: In vitro cell viability assay (CellTiter-Glo, ATP levels), multiple myeloma cells; assay type: cell-based; details: Homo sapiens, MOLP-8, 168 h, 7-day incubation, CellTiter-Glo, average values; read-out: MOLP-8 IC50
Method: (§1) In Vitro Cell Viability Assay
(§2) The present disclosure provides a method for inhibiting cell viability, as measured by ATP levels. The method for inhibiting cell viability is drawn to contacting various cancer cells with the compounds described herein at various concentrations. The cancer cell lines were maintained in culture conditions at 37° C. in an atmosphere of 5% CO2 in air. The cells growing in an exponential growth phase were harvested and counted for plating. Compounds were incubated in two cancer cell types representing multiple myeloma (MOLP-8) and triple negative breast cancer (DU4475). Cells were plated at an optimized cell numbers per well in 96-well plates and allowed to attach to the plates overnight at approximately 80% confluency.
(§3) After addition of compounds, plates were incubated for 7-day. At the end of incubation period on day 8, media was removed and replaced with a solution of CellTiter-Glo™ reagent (Promega®) according to protocol. Luminescence was read using an EnVision® multi-label plate reader (Perkin-Elmer®), and signal intensity was calculated relative to positive and negative control wells. Cisplatin was included as the positive control. A dose-response calculation was performed in a non-linear regression fit and by using the Hill equation to calculate a concentration-response curve and 50% inhibitory concentration (IC50) values for each compound.
(§4) The average IC50 values of compounds 1-15 in multiple myeloma (MOLP-8) and triple negative breast cancer (DU4475) cells are shown in Table 1.

DU4475 = test: In vitro cell viability assay (CellTiter-Glo, ATP levels), triple negative breast cancer cells; assay type: cell-based; details: Homo sapiens, DU-4475, 168 h, 7-day incubation, CellTiter-Glo, average values; read-out: DU4475 IC50
Method: as §1, §2, §3, §4

SMILES | IC50 [1] [nM] | IC50 (MOLP-8) [nM] | IC50 (DU4475) [nM]
O=C1C=C(Cl)CCN1C(=O)/C=C/c1ncccn1 [Compound 36, (E)-4-chloro-1-(3-(pyrimidin-2-yl)acryloyl)-5,6-dihydropyridin-2(1H)-one] | 2970 |  | 
O=C1C=CCCN1C(=O)/C=C/c1ccnnc1 [Compound 39, (E)-1-(3-(pyridazin-4-yl)acryloyl)-5,6-dihydropyridin-2(1H)-one] |  | 300 | 650
C/C(=C\c1ncccn1)C(=O)N1CCC=CC1=O [Compound 42, (E)-1-(2-methyl-3-(pyrimidin-2-yl)acryloyl)-5,6-dihydropyridin-2(1H)-one] | 2200 |  | 
C/C(=C\c1ncccn1)C(=O)N1CCC=C(Cl)C1=O [Compound 46, (E)-3-chloro-1-(2-methyl-3-(pyrimidin-2-yl)acryloyl)-5,6-dihydropyridin-2(1H)-one] | 970 |  | 
O=C1C=CCCN1C(=O)/C=C/c1ncc2ccccc2n1 [Compound 48, (E)-1-(3-(quinazolin-2-yl)acryloyl)-5,6-dihydropyridin-2(1H)-one] |  | 290 | 350
O=C1C=CCCN1C(=O)/C=C/C1CCN(S(=O)(=O)c2ccc(F)cc2)CC1 [Compound 51, (E)-1-(3-(1-(4-fluorophenylsulfonyl)piperidin-4-yl)acryloyl)-5,6-dihydropyridin-2(1H)-one] |  | 560 | 570
Cn1cc(/C=C/C(=O)N2CCC=CC2=O)c2ccccc21 [Compound 52, 1-[(2E)-3-(1-methyl-1H-indol-3-yl)prop-2-enoyl]-5,6-dihydropyridin-2(1H)-one] |  | 1000 | 1520
CC1(/C=C/C(=O)N2CCC=CC2=O)CCN(C(=O)OC(C)(C)C)CC1 [Compound 64, tert-butyl (E)-4-methyl-4-(3-oxo-3-(6-oxo-3,6-dihydropyridin-1(2H)-yl)prop-1-en-1-yl)piperidine-1-carboxylate] | 4320 |  | 
O=C1C=CCCN1C(=O)/C=C/c1cnc2c(n1)OCCO2 [Compound 65, (E)-1-(3-(2,3-dihydro-[1,4]dioxino[2,3-b]pyrazin-6-yl)acryloyl)-5,6-dihydropyridin-2(1H)-one] | 2250 |  | 
CC1=CCCN(C(=O)/C=C/c2cnn(C)c2)C1=O [Compound 93, (E)-3-methyl-1-(3-(1-methyl-1H-pyrazol-4-yl)acryloyl)-5,6-dihydropyridin-2(1H)-one] | 88300 |  | 
COc1cc(/C=C/C(=O)N2C(=O)C=CCC2(C)C)cc(OC)c1OC [Compound 94, (E)-6,6-dimethyl-1-(3-(3,4,5-trimethoxyphenyl)acryloyl)-5,6-dihydropyridin-2(1H)-one] | 3150 |  | 

Second part, the molecule after the results:

IC50 [1] [nM] | IC50 (MOLP-8) [nM] | IC50 (DU4475) [nM] | SMILES
1240 |  |  | CN1CCC(/C=C/C(=O)N2CCC=CC2=O)CC1 [Compound 41, (E)-1-(3-(1-methylpiperidin-4-yl)acryloyl)-5,6-dihydropyridin-2(1H)-one]
3140 |  |  | CS(=O)(=O)N1CCC(/C=C/C(=O)N2CCC=CC2=O)CC1 [Compound 47, 1-{(2E)-3-[1-(methylsulfonyl)piperidin-4-yl]prop-2-enoyl}-5,6-dihydropyridin-2(1H)-one]
 | 410 | 500 | O=C(c1ccc(F)cc1)N1CCC(/C=C/C(=O)N2CCC=CC2=O)CC1 [Compound 50, (E)-1-(3-(1-(4-fluorobenzoyl)piperidin-4-yl)acryloyl)-5,6-dihydropyridin-2(1H)-one]
1400 |  |  | O=C(c1ccccc1)N1CCC(/C=C/C(=O)N2CCC=CC2=O)CC1 [Compound 54, 1-[(2E)-3-(1-benzoylpiperidin-4-yl)prop-2-enoyl]-5,6-dihydropyridin-2(1H)-one]
 | 390 | 840 | CC(C)(O)CN1CCC(/C=C/C(=O)N2CCC=CC2=O)CC1 [Compound 59, 1-{(2E)-3-[1-(2-hydroxy-2-methylpropyl)piperidin-4-yl]prop-2-enoyl}-5,6-dihydropyridin-2(1H)-one]
 | 340 | 590 | O=C1C=CCCN1C(=O)/C=C/C1CCN(Cc2ccc(F)cc2)CC1 [Compound 60, 1-{3-[1-(4-fluorobenzyl)piperidin-4-yl]prop-2-enoyl}-5,6-dihydropyridin-2(1H)-one]
